Assay results published in PubChem BioAssay AID1053172 (The Scripps Research Institute Molecular Screening Center, 2014).
The source made the active and inactive calls. How the calls were made is not given here.

target: HIV-1 integrase / human LEDGF/p75 complex; assay: blockers of LEDGF/p75-dependent integrase activity – biochemical, TR-FRET, dose response (AID 1053172); conditions: TR-FRET integrase-LEDGF/p75 DNA integration

Q: For `O=c1c2cc(O)c(O)cc2oc2cc(O)c(C3OC(CO)C(O)C(O)C3O)c(O)c12` (stereo not given), which IC50 is on record?
A: The IC50 was 1.74 µM.

Q: With `CCN(CC)c1ccc(N=C2C=CC(=O)C=C2NC(C)=O)cc1` as the compound, how does the IC50 read?
A: Its IC50 is > 36.6 µM (inactive).

Q: `Cc1cc(C(=O)N/N=C/c2ccc(O)c([N+](=O)[O-])c2)c(C)n1-c1ccc(F)cc1` was tested. Which IC50 did it give?
A: The IC50 was “inactive”.

Q: Which IC50 does the source give for `COc1cccc(-n2c(SCc3cc(=O)oc4cc(O)c(O)cc34)nc3ccccc3c2=O)c1` here?
A: Its IC50 is 3.81 µM.

Q: For `CC1OC(Oc2c(-c3cc(O)c(O)c(O)c3)oc3cc(O)cc(O)c3c2=O)C(O)C(O)C1O` (stereo not given), which IC50 is on record?
A: Its IC50 is 3.09 µM.

Q: With `O=c1cc2c(=O)oc3cc(O)c(O)oc3c2c(O)c1O` as the compound, how does the IC50 read?
A: Its IC50 is 0.244 µM.

Q: Which IC50 does the source give for `O=C1C(=Cc2ccco2)CCC1=Cc1ccco1` here?
A: The IC50 was 1.92 µM.

Q: Which IC50 does the source give for `O=C(O)c1ccc2nc(-c3ccco3)c(-c3ccco3)nc2c1` here?
A: The IC50 was 1.92 µM.

Q: How did the IC50 turn out when `O=C(Cc1csc(N2CCOCC2)n1)N/N=C/c1ccc(O)c(O)c1O` was run?
A: Its IC50 is 0.927 µM.

Q: Which IC50 does the source give for `CN(C)c1ccc2nc3ccc(=O)cc-3sc2c1` here?
A: Its IC50 is > 36.5 µM (inactive).

Q: `Cc1cc(-c2csc(N)n2)c(C)n1Cc1ccco1` was tested. Which IC50 did it give?
A: Its IC50 is > 36.6 µM (inactive).

Q: Which IC50 does the source give for `O=C(O)C(Cc1ccccc1)N1C(=O)/C(=C/C=C/c2ccco2)SC1=S` (stereo not given) here?
A: The IC50 was 2.74 µM.

Q: How did the IC50 turn out when `O=C1c2cc(O)c(O)cc2OC(c2ccc(O)c(O)c2)C1O` (stereo not given) was run?
A: Its IC50 is 4.69 µM.

Q: `C[C@@H]1O[C@@H](O[C@@H]2[C@@H](O)[C@H](OCCc3ccc(O)c(O)c3)O[C@H](CO)[C@H]2OC(=O)/C=C/c2ccc(O)c(O)c2)[C@H](O)[C@H](O)[C@H]1O` was tested. Which IC50 did it give?
A: The IC50 was 1.41 µM.

Q: `CN(C)[C@@H]1C(=O)C(C(N)=O)=C(O)[C@@]2(O)C(=O)C3=C(O)c4c(O)cccc4[C@@](C)(O)C3[C@H](O)C12` (stereo not given in full) was tested. Which IC50 did it give?
A: Its IC50 is “inactive”.

Q: With `O=C(NCc1ccco1)c1cc2ccc(O)cc2oc1=O` as the compound, how does the IC50 read?
A: The IC50 was “inactive”.

Q: Which IC50 does the source give for `Oc1cccc(CN2CCOCC2)c1O` here?
A: Its IC50 is “inactive”.

Q: For `Cc1cccc(N=C2NC(=O)/C(=C/C=C/c3ccco3)S2)c1C`, which IC50 is on record?
A: The IC50 was 2.99 µM.

Q: How did the IC50 turn out when `COCCN(CCOC)Cc1c(O)ccc2c1O/C(=C\c1ccc(C)o1)C2=O` was run?
A: The IC50 was > 36.5 µM (inactive).

Q: `Cc1ccc(NC(=O)CN2C(=O)N/C(=C/c3ccco3)C2=O)cc1` was tested. Which IC50 did it give?
A: The IC50 was > 36.5 µM (inactive).
